Source: patent US11918550B2, “Sensitization of cancer cells to differentiation therapy with mitochondrial uncoupler niclosamide ethanolamine” (The Board of Trustees of the Leland Stanford Junior …, priority 2020, dated 2024)

What was measured:
SK-N-BE(2) cells [1] = assay: 1-13C-glutamine tracing of reductive carboxylation under normoxia or hypoxia; format: cell-based; settings: 1 μM NEN
Method: Metabolic analysis. For the metabolomics and isotope tracing analysis in vitro, cells were washed with cold PBS, lysed in 80% Ultra LC-MS acetonitrile on ice for 15 minutes, centrifuged at 20,000 g for 10 minutes at 4° C., and supernatant was subjected to mass spectrometry analysis. For the metabolomics analysis in vivo, 10-20 mg tissue were cut off on ice, rinsed if necessary to remove blood, and place in a 2 ml round-bottom cryovial. The tissues were homogenized by 3 times 10 s on/off bursts homogenization in 1 ml 80% methanol on dry ice. Transfer the homogenate to an Eppendorf tube and keep on liquid nitrogen while processing the remaining samples. Incubated all the samples in −80° C. for 30 minutes. After incubation, vortexed the samples for 5 seconds. Then centrifuged the samples at 20,000 g for 10 minutes at 4° C., and supernatant was subjected to mass spectrometry analysis. Resuspend the remaining cellular pellet in 100 ul protein lysis buffer and determine the protein concentration. Then calculate the total protein content per sample.
Liquid chromatography was performed using an Agilent 1290 Infinity LC system (Agilent, Santa Clara, US) coupled to a Q-TOF 6545 mass spectrometer (Agilent, Santa Clara, US). […]

SK-N-BE(2) cells [2] = assay: RNA-seq gene expression profiling with GSEA/DAVID analysis and qPCR validation; format: cell-based
Method: RNA isolation, reverse transcription, and real-time PCR. The procedure was performed as described before. Briefly, total RNA was isolated from 60 mm tissue culture plates according to the TRIzol Reagent (Invitrogen, 15596026) protocol. 3 μg of total RNA was used in the reverse transcription reaction using the iScript cDNA synthesis kit (Bio-Rad). Quantitative PCR amplification was performed on the Prism 7900 Sequence Detection System (Applied Biosystems) using Taqman Gene Expression Assays (Applied Biosystems). Gene expression level were normalized to 18S rRNA.
RNA Sequencing and bioinformatics analysis. […] The RNA-seq library was constructed and subjected to 150 bp paired-end sequencing on an Illumina sequencing platform (Novogene). RNA-seq analysis was performed using the kallisto and sleuth analytical pipeline. In brief, a transcript index was generated with reference to Ensembl version 67 for hg19. Paired-end mRNA-seq reads were pseudo-aligned using kallisto (v0.42.4) with respect to this transcript index using 100 bootstraps (-b 100) to estimate the variance of estimated transcript abundances. Transcript-level estimates were aggregated to transcripts per million (TPM) estimates for each gene, with gene names assigned from Ensembl using biomaRt. Differential gene expression analysis was performed using the sleuth R package across pairwise groups using Wald tests, with significant hits called with a sleuth q-value<0.05 and log 2(fold change) >0.693 or <−0.693. […] All the annotated transcripts (˜21,427 features in total) with expression values were uploaded to a locally-installed GSEA tool (version 4.1.0) and compared against the H: hallmark gene sets (50 gene sets).
To generate the favorable or unfavorable prognosis gene sets, Kaplan-Meier assay were employed for all the genes independently by using all 11 available neuroblastoma patient databases from R2.
For functional annotation, differentially expressed genes were submitted to online Database for Annotation, Visualization and Integrated Discovery (DAVID) website. The Analyses in DAVID were performed using the default parameters.

[3] = GSEA against gene sets from 11 neuroblastoma datasets of the R2 database
[4] = SK-N-BE(2), NEN 16 h, DAVID analysis
[5] = SK-N-BE(2), NEN 16 h, sleuth q-value<0.05, b>abs(ln(2))
[6] = SK-N-BE(2), RNA-seq, validated by RT-qPCR

O=C(Nc1ccc([N+](=O)[O-])cc1Cl)c1cc(Cl)ccc1O [NEN, 5-chloro-N-(2-chloro-4-nitrophenyl)-2-hydroxybenzamide compound with 2-aminoethanol (1:1)]
hypoxia-induced reductive carboxylation flux (SK-N-BE(2) cells [1]; hypoxia (0.5% oxygen)): fully repressed
basal reductive carboxylation flux (SK-N-BE(2) cells [1]; normoxia): reduced
enrichment of NEN-downregulated genes in patient prognosis gene sets (SK-N-BE(2) cells [2]; [3]): enriched in unfavorable prognosis gene sets
enrichment of NEN-upregulated genes in patient prognosis gene sets (SK-N-BE(2) cells [2]; [3]): enriched in all the favorable prognosis gene sets except one
genes expression in RAR signaling induced by RA (SK-N-BE(2) cells [2]; SK-N-BE(2), 1 μM NEN + 1 μM 13-cis-RA 16 hrs, validated by qRT-PCR): significantly enhanced
p53 pathway gene expression (GSEA) (SK-N-BE(2) cells [2]; SK-N-BE(2), NEN 16 h): significantly increased
pathways enriched in NEN-downregulated genes (SK-N-BE(2) cells [2]; [4]): DNA replication and cell cycle progression
pathways enriched in upregulated genes (SK-N-BE(2) cells [2]; [4]): neurogenesis, nervous system development and neuron differentiation
number of genes downregulated (SK-N-BE(2) cells [2]; [5]): 224
number of genes significantly upregulated (SK-N-BE(2) cells [2]; [5]): 495
cell division-related genes (GSEA hallmarks E2F-TARGETS, G2M_CHECKPOINT) (SK-N-BE(2) cells [2]; SK-N-BE(2), NEN 16 h vs CTRL): downregulation
expression of N-Myc targeted genes (GSEA MYC_TARGETS_V1, V2) (SK-N-BE(2) cells [2]; SK-N-BE(2), NEN 16 h vs CTRL): reduced
expression of canonical Wnt/β-catenin target genes (SK-N-BE(2) cells [2]; [6]): reduced
gene expression of inhibitor of Wnt/β-catenin pathway including TP53 (SK-N-BE(2) cells [2]; [6]): upregulated
